Experimental data reported in ChEMBL document CHEMBL5214933, “Discovery of Selenium-Containing STING Agonists as Orally Available Antitumor Agents” (J Med Chem, 2022).
The source made the active and inactive calls. The rule behind the calls is not given here.

Assays:
[1] = target: CYP3A4 (Homo sapiens, UniProt P08684); assay: Inhibition of recombinant CYP3A4 (unknown origin) using midazolam as substrate assessed as reduction in substrate hydroxylation at 10 uM incubated for 5 mins in presence of NADPH by LC-MS/MS analysis relative to control; assay type: ADME; conditions: recombinant CYP3A4, probe midazolam
CYP3A4, sequence (P08684 whole entry): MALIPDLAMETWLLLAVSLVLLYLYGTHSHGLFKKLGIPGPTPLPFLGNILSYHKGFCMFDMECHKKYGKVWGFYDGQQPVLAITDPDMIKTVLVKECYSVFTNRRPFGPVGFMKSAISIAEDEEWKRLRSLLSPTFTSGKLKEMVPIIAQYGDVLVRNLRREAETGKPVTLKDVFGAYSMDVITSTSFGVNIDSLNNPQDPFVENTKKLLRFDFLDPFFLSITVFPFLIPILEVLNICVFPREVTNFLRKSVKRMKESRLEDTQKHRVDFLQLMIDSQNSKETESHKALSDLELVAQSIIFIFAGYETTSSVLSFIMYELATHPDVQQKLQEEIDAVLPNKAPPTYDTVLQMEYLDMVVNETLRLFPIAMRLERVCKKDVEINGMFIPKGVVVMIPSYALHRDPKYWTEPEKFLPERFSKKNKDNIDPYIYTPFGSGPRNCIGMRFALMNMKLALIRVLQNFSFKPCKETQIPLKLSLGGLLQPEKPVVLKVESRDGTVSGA

[2] = target: T1, Stimulator of interferon genes protein (Mus musculus) (UniProt Q3TBT3); assay: Agonist activity at STING in mouse MEF cells assessed as increase in IFNbeta mRNA expression at 10 uM measured after 3 hrs by qRT-PCR analysis; assay type: cell-based; conditions: filed as agonist
T1 sequence (whole entry): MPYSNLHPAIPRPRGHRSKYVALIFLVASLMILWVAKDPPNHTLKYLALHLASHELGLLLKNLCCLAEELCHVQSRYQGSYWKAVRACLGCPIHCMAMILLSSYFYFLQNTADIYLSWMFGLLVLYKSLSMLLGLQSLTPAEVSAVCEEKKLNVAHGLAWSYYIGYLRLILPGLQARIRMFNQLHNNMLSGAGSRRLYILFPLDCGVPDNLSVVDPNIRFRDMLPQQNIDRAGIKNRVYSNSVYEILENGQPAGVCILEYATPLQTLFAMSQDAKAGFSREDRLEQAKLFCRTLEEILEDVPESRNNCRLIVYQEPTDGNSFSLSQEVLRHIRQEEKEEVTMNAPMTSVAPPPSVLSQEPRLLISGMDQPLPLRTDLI

CC[C@H](CC(=O)c1cc2cc(OC)c(OC)cc2[se]1)C(=O)O
inhibition at 5 min, 10 µM [1]: 13.5%
Activity [2]: Active
